Experimental data taken from patent publication US10696615B2, “Prenylated hydroxystilbenes” (The University of Sydney, priority 2011, dated 2020).

Tests used:
Type in all cases: cell-based, human
CCRF-CEM = test: NCI in vitro cancer screen, Leukemia; conditions: for GI50 / CC50: Homo sapiens; for CC50: read-out: LC50 (the source's name)
RPMI-8226 = test: NCI in vitro cancer screen, Leukemia; conditions: RPMI-8226; for GI50 / CC50: Homo sapiens; for CC50: read-out: LC50 (the source's name)
EKVX = test: NCI in vitro cancer screen, Non-Small Cell Lung Cancer; conditions: for GI50 / CC50: Homo sapiens; for CC50: read-out: LC50 (the source's name)
HOP-62 = test: as above; conditions: HOP-62; for GI50 / CC50: Homo sapiens; for CC50: read-out: LC50 (the source's name)
NCI-H23 = test: as above; conditions: NCI-H23; for GI50 / LC50: Homo sapiens
NCI-H460 = test: as above; conditions: NCI-H460; for GI50 / CC50: Homo sapiens; for CC50: read-out: LC50 (the source's name)
HCC-2998 = test: NCI in vitro cancer screen, Colon Cancer; conditions: HCC-2998; for GI50 / CC50: Homo sapiens; for CC50: read-out: LC50 (the source's name)
HCT-15 = test: NCI in vitro cancer screen, Colon Cancer; conditions: HCT-15; for GI50 / CC50: Homo sapiens; for CC50: read-out: LC50 (the source's name)
SF-268 = test: NCI in vitro cancer screen, CNS Cancer; conditions: SF-268; for GI50 / CC50: Homo sapiens; for CC50: read-out: LC50 (the source's name)
LOX IMVI = test: NCI in vitro cancer screen, Melanoma; conditions: for GI50 / CC50: Homo sapiens; for CC50: read-out: LC50 (the source's name)
M14 = test: NCI in vitro cancer screen, Melanoma; conditions: M14; for GI50 / CC50: Homo sapiens; for CC50: read-out: LC50 (the source's name)
MDA-MB-435 = test: NCI in vitro cancer screen, Melanoma; conditions: MDA-MB-435; for GI50 / CC50: Homo sapiens; for CC50: read-out: LC50 (the source's name)
SK-MEL-2 = test: NCI in vitro cancer screen, Melanoma; conditions: SK-MEL-2; for GI50 / LC50: Homo sapiens
SK-MEL-28 = test: NCI in vitro cancer screen, Melanoma; conditions: SK-MEL-28; for GI50 / LC50: Homo sapiens
SK-MEL-5 = test: NCI in vitro cancer screen, Melanoma; conditions: SK-MEL-5; for GI50 / CC50: Homo sapiens; for CC50: read-out: LC50 (the source's name)
UACC-62 = test: NCI in vitro cancer screen, Melanoma; conditions: UACC-62; for GI50 / CC50: Homo sapiens; for CC50: read-out: LC50 (the source's name)
OVCAR-8 = test: NCI in vitro cancer screen, Ovarian Cancer; conditions: OVCAR-8; for GI50 / CC50: Homo sapiens; for CC50: read-out: LC50 (the source's name)
SK-OV-3 = test: NCI in vitro cancer screen, Ovarian Cancer; conditions: SK-OV-3; for GI50 / CC50: Homo sapiens; for CC50: read-out: LC50 (the source's name)
786-0 = test: NCI in vitro cancer screen, Renal Cancer; conditions: 786-0; for GI50 / LC50 (50% net cell kill): Homo sapiens
A498 = test: NCI in vitro cancer screen, Renal Cancer; conditions: A498; for GI50 / CC50: Homo sapiens; for CC50: read-out: LC50 (the source's name)
RXF-393 = test: NCI in vitro cancer screen, Renal Cancer; conditions: RXF-393; for GI50 / CC50: Homo sapiens; for CC50: read-out: LC50 (the source's name)
SN12C = test: NCI in vitro cancer screen, Renal Cancer; conditions: for GI50 / CC50: Homo sapiens; for CC50: read-out: LC50 (the source's name)
TK-10 = test: NCI in vitro cancer screen, Renal Cancer; conditions: TK-10; for GI50 / LC50: Homo sapiens
PC-3 = test: NCI in vitro cancer screen, Prostate Cancer; conditions: PC-3; for GI50 / CC50: Homo sapiens; for CC50: read-out: LC50 (the source's name)
HS 578T = test: NCI in vitro cancer screen, Breast Cancer; conditions: for GI50 / CC50: Homo sapiens; for CC50: read-out: LC50 (the source's name)
T-47D = test: NCI in vitro cancer screen, Breast Cancer; conditions: for GI50 / CC50: Homo sapiens, T47D; for CC50: read-out: LC50 (the source's name)
MDA-MB-468 = test: NCI in vitro cancer screen, Breast Cancer; conditions: MDA-MB-468; for GI50 / CC50: Homo sapiens; for CC50: read-out: LC50 (the source's name)

SMILES: CC(C)=CCc1c(O)cc(/C=C/c2ccc(O)c(O)c2)c(CC=C(C)C)c1O [USYDS7, (E)-2,4-di(3-methyl-2-buten-1-yl)-3,3′,4′,5-tetrahydroxystilbene]
- TGI (CCRF-CEM): 8.48 µM
- GI50 (CCRF-CEM): 2.73 µM
- CC50 (CCRF-CEM): 71.2 µM
- GI50 (RPMI-8226): 2.31 µM
- CC50 (RPMI-8226): 61.1 µM
- TGI (RPMI-8226): 6.01 µM
- TGI (EKVX): 14.7 µM
- GI50 (EKVX): 4.25 µM
- CC50 (EKVX): 44.9 µM
- TGI (HOP-62): 15.0 µM
- GI50 (HOP-62): 3.67 µM
- CC50 (HOP-62): 51.6 µM
- GI50 (NCI-H23): 1.81 µM
- LC50 (NCI-H23): 29.5 µM
- TGI (NCI-H23): 5.22 µM
- GI50 (NCI-H460): 1.64 µM
- CC50 (NCI-H460): 6.33 µM
- TGI (NCI-H460): 3.22 µM
- TGI (HCC-2998): 4.26 µM
- GI50 (HCC-2998): 1.95 µM
- CC50 (HCC-2998): 9.34 µM
- TGI (HCT-15): 3.78 µM
- GI50 (HCT-15): 1.29 µM
- CC50 (HCT-15): 22 µM
- GI50 (SF-268): 2.26 µM
- CC50 (SF-268): 22.7 µM
- TGI (SF-268): 5.47 µM
- TGI (LOX IMVI): 3.41 µM
- GI50 (LOX IMVI): 1.71 µM
- CC50 (LOX IMVI): 6.81 µM
- GI50 (M14): 1.79 µM
- CC50 (M14): 7.73 µM
- TGI (M14): 3.71 µM
- GI50 (MDA-MB-435): 2.29 µM
- CC50 (MDA-MB-435): 31.7 µM
- TGI (MDA-MB-435): 6.47 µM
- GI50 (SK-MEL-2): 3.2 µM
- LC50 (SK-MEL-2): 42.9 µM
- TGI (SK-MEL-2): 7.82 µM
- GI50 (SK-MEL-28): 3.65 µM
- LC50 (SK-MEL-28): 36.7 µM
- TGI (SK-MEL-28): 11.8 µM
- GI50 (SK-MEL-5): 1.8 µM
- CC50 (SK-MEL-5): 7.54 µM
- TGI (SK-MEL-5): 3.68 µM
- GI50 (UACC-62): 2.8 µM
- CC50 (UACC-62): 31.5 µM
- TGI (UACC-62): 7.84 µM
- GI50 (OVCAR-8): 1.68 µM
- CC50 (OVCAR-8): 7.95 µM
- TGI (OVCAR-8): 3.65 µM
- GI50 (SK-OV-3): 5.98 µM
- CC50 (SK-OV-3): 46.5 µM
- TGI (SK-OV-3): 19.4 µM
- TGI (786-0): 4.47 µM
- GI50 (786-0): 1.99 µM
- LC50 (50% net cell kill) (786-0): 10.2 µM
- TGI (A498): 23.8 µM
- GI50 (A498): 11.1 µM
- CC50 (A498): 50.8 µM
- GI50 (RXF-393): 1.53 µM
- CC50 (RXF-393): 6.8 µM
- TGI (RXF-393): 3.23 µM
- TGI (SN12C): 3.16 µM
- GI50 (SN12C): 1.65 µM
- CC50 (SN12C): 6.03 µM
- GI50 (TK-10): 3.62 µM
- LC50 (TK-10): 34.3 µM
- TGI (TK-10): 11.2 µM
- GI50 (PC-3): 2.02 µM
- CC50 (PC-3): 11.3 µM
- TGI (PC-3): 4.57 µM
- TGI (HS 578T): 8.09 µM
- GI50 (HS 578T): 1.84 µM
- CC50 (HS 578T): 50.9 µM
- TGI (T-47D): 6.09 µM
- GI50 (T-47D): 1.88 µM
- CC50 (T-47D): 43.5 µM
- GI50 (MDA-MB-468): 2.12 µM
- CC50 (MDA-MB-468): 13.9 µM
- TGI (MDA-MB-468): 4.84 µM

SMILES: COc1cc(O)cc(/C=C/c2ccc(O)c(O)c2)c1CC=C(C)C [USYDS9, (E)-2-(3-methyl-2-buten-1-yl)-3′,4′,5-trihydroxy-3-methoxystilbene]
- TGI (CCRF-CEM): >100 µM
- GI50 (CCRF-CEM): 2.14 µM
- CC50 (CCRF-CEM): > 100 µM
- GI50 (RPMI-8226): 0.45 µM
- CC50 (RPMI-8226): > 100 µM
- TGI (RPMI-8226): >100 µM
- TGI (EKVX): >100 µM
- GI50 (EKVX): 26.4 µM
- CC50 (EKVX): > 100 µM
- TGI (HOP-62): >100 µM
- GI50 (HOP-62): 2.87 µM
- CC50 (HOP-62): > 100 µM
- GI50 (NCI-H23): 1.43 µM
- LC50 (NCI-H23): > 100 µM
- TGI (NCI-H23): >100 µM
- GI50 (NCI-H460): 0.47 µM
- CC50 (NCI-H460): 75.7 µM
- TGI (NCI-H460): 10.3 µM
- TGI (HCC-2998): 21.2 µM
- GI50 (HCC-2998): 4.18 µM
- CC50 (HCC-2998): > 100 µM
- TGI (HCT-15): >100 µM
- GI50 (HCT-15): 0.43 µM
- CC50 (HCT-15): > 100 µM
- GI50 (SF-268): 0.63 µM
- CC50 (SF-268): > 100 µM
- TGI (SF-268): 37.6 µM
- TGI (LOX IMVI): 58.6 µM
- GI50 (LOX IMVI): 0.64 µM
- CC50 (LOX IMVI): > 100 µM
- GI50 (M14): 0.3 µM
- CC50 (M14): > 100 µM
- TGI (M14): 5.69 µM
- GI50 (MDA-MB-435): 0.13 µM
- CC50 (MDA-MB-435): > 100 µM
- TGI (MDA-MB-435): 0.42 µM
- GI50 (SK-MEL-2): 2.17 µM
- LC50 (SK-MEL-2): > 100 µM
- TGI (SK-MEL-2): 12.1 µM
- GI50 (SK-MEL-28): 8.14 µM
- LC50 (SK-MEL-28): > 100 µM
- TGI (SK-MEL-28): >100 µM
- GI50 (SK-MEL-5): 0.39 µM
- CC50 (SK-MEL-5): > 100 µM
- TGI (SK-MEL-5): 2.52 µM
- GI50 (UACC-62): 3.22 µM
- CC50 (UACC-62): > 100 µM
- TGI (UACC-62): 34.8 µM
- GI50 (OVCAR-8): 0.5 µM
- CC50 (OVCAR-8): > 100 µM
- TGI (OVCAR-8): 38.3 µM
- GI50 (SK-OV-3): 0.5 µM
- CC50 (SK-OV-3): > 100 µM
- TGI (SK-OV-3): 5.12 µM
- TGI (786-0): 18.7 µM
- GI50 (786-0): 2.99 µM
- LC50 (50% net cell kill) (786-0): > 100 µM
- TGI (A498): 53.5 µM
- GI50 (A498): 10.3 µM
- CC50 (A498): > 100 µM
- GI50 (RXF-393): 0.23 µM
- CC50 (RXF-393): > 100 µM
- TGI (RXF-393): 0.63 µM
- TGI (SN12C): 83.5 µM
- GI50 (SN12C): 1.76 µM
- CC50 (SN12C): > 100 µM
- GI50 (TK-10): 5.34 µM
- LC50 (TK-10): > 100 µM
- TGI (TK-10): 41.2 µM
- GI50 (PC-3): 2.92 µM
- CC50 (PC-3): > 100 µM
- TGI (PC-3): >100 µM
- TGI (HS 578T): 0.73 µM
- GI50 (HS 578T): 0.2 µM
- CC50 (HS 578T): > 100 µM
- TGI (T-47D): 36.9 µM
- GI50 (T-47D): 4.78 µM
- CC50 (T-47D): > 100 µM
- GI50 (MDA-MB-468): 2.42 µM
- CC50 (MDA-MB-468): > 100 µM
- TGI (MDA-MB-468): 8.48 µM
